Reference: patent publication US8192962B2, “Processes for detecting toxic substances” (Daikin Industries, Ltd., priority 2001, dated 2012)

Tested on: Genes belonging to other category
Test: DNA chip mRNA expression in yeast, genes belonging to other category (Table 9)
Type: cell-based, Saccharomyces cerevisiae S288C
Method in brief: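 S. cerevisiae S288C grown at 25° C in YPD were exposed in log phase for two hours to one toxic chemical at a growth-inhibiting, non-lethal concentration; untreated cells served as control. Poly(A) mRNA was reverse-transcribed with Cy3/Cy5-dUTP and hybridized to a whole-genome yeast DNA chip at 65° C for over 12 hours; values are fluorescence ratios versus untreated.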

## [Cl][Pb][Cl] [(4), PbCl2]
Yeast gene YKL013C
  The level of expressed mRNA in the presence of chemical substance/The level of expressed mRNA in the absence of chemical substance: 1.1
Yeast gene YKL039W
  The level of expressed mRNA in the presence of chemical substance/The level of expressed mRNA in the absence of chemical substance: 0.8
Yeast gene YKL041W
  The level of expressed mRNA in the presence of chemical substance/The level of expressed mRNA in the absence of chemical substance: 1.0
Yeast gene YKL096W
  The level of expressed mRNA in the presence of chemical substance/The level of expressed mRNA in the absence of chemical substance: 1.6
Yeast gene YKL165C
  The level of expressed mRNA in the presence of chemical substance/The level of expressed mRNA in the absence of chemical substance: 0.6
Yeast gene YKL193C
  The level of expressed mRNA in the presence of chemical substance/The level of expressed mRNA in the absence of chemical substance: 1.4
Yeast gene YLR120C
  The level of expressed mRNA in the presence of chemical substance/The level of expressed mRNA in the absence of chemical substance: 1.6
Yeast gene YLR136C
  The level of expressed mRNA in the presence of chemical substance/The level of expressed mRNA in the absence of chemical substance: 3.3
Yeast gene YLR178C
  The level of expressed mRNA in the presence of chemical substance/The level of expressed mRNA in the absence of chemical substance: 4.6
Yeast gene YLR250W
  The level of expressed mRNA in the presence of chemical substance/The level of expressed mRNA in the absence of chemical substance: 1.4
Yeast gene YLR327C
  The level of expressed mRNA in the presence of chemical substance/The level of expressed mRNA in the absence of chemical substance: 8.2
Yeast gene YLR356W
  The level of expressed mRNA in the presence of chemical substance/The level of expressed mRNA in the absence of chemical substance: 1.2
Yeast gene YLR362W
  The level of expressed mRNA in the presence of chemical substance/The level of expressed mRNA in the absence of chemical substance: 3.0
Yeast gene YLR391W
  The level of expressed mRNA in the presence of chemical substance/The level of expressed mRNA in the absence of chemical substance: 0.8
Yeast gene YLR429W
  The level of expressed mRNA in the presence of chemical substance/The level of expressed mRNA in the absence of chemical substance: 0.9
Yeast gene YMR004W
  The level of expressed mRNA in the presence of chemical substance/The level of expressed mRNA in the absence of chemical substance: 1.3
Yeast gene YMR094W
  The level of expressed mRNA in the presence of chemical substance/The level of expressed mRNA in the absence of chemical substance: 1.7
Yeast gene YMR104C
  The level of expressed mRNA in the presence of chemical substance/The level of expressed mRNA in the absence of chemical substance: 2.6
Yeast gene YMR219W
  The level of expressed mRNA in the presence of chemical substance/The level of expressed mRNA in the absence of chemical substance: 0.7
Yeast gene YMR226C
  The level of expressed mRNA in the presence of chemical substance/The level of expressed mRNA in the absence of chemical substance: 1.6
Yeast gene YMR275C
  The level of expressed mRNA in the presence of chemical substance/The level of expressed mRNA in the absence of chemical substance: 0.6
Yeast gene YMR276W
  The level of expressed mRNA in the presence of chemical substance/The level of expressed mRNA in the absence of chemical substance: 0.7
Yeast gene YMR314W
  The level of expressed mRNA in the presence of chemical substance/The level of expressed mRNA in the absence of chemical substance: 1.3
Yeast gene YNL006W
  The level of expressed mRNA in the presence of chemical substance/The level of expressed mRNA in the absence of chemical substance: 1.5
Yeast gene YNL007C
  The level of expressed mRNA in the presence of chemical substance/The level of expressed mRNA in the absence of chemical substance: 0.8
Yeast gene YNL093W
  The level of expressed mRNA in the presence of chemical substance/The level of expressed mRNA in the absence of chemical substance: 4.5
Yeast gene YNL333W
  The level of expressed mRNA in the presence of chemical substance/The level of expressed mRNA in the absence of chemical substance: 2.3
Yeast gene YNR010W
  The level of expressed mRNA in the presence of chemical substance/The level of expressed mRNA in the absence of chemical substance: 2.8
Yeast gene YNR069C
  The level of expressed mRNA in the presence of chemical substance/The level of expressed mRNA in the absence of chemical substance: 0.4
Yeast gene YOL013C
  The level of expressed mRNA in the presence of chemical substance/The level of expressed mRNA in the absence of chemical substance: 1.5
Yeast gene YOL164W
  The level of expressed mRNA in the presence of chemical substance/The level of expressed mRNA in the absence of chemical substance: 1.5
Yeast gene YOR036W
  The level of expressed mRNA in the presence of chemical substance/The level of expressed mRNA in the absence of chemical substance: 1.6
Yeast gene YOR117W
  The level of expressed mRNA in the presence of chemical substance/The level of expressed mRNA in the absence of chemical substance: 0.8
Yeast gene YOR124C
  The level of expressed mRNA in the presence of chemical substance/The level of expressed mRNA in the absence of chemical substance: 0.8
Yeast gene YOR132W
  The level of expressed mRNA in the presence of chemical substance/The level of expressed mRNA in the absence of chemical substance: 2.8
Yeast gene YOR157C
  The level of expressed mRNA in the presence of chemical substance/The level of expressed mRNA in the absence of chemical substance: 1.3
Yeast gene YOR181W
  The level of expressed mRNA in the presence of chemical substance/The level of expressed mRNA in the absence of chemical substance: 1.4
Yeast gene YOR185C
  The level of expressed mRNA in the presence of chemical substance/The level of expressed mRNA in the absence of chemical substance: 1.1
Yeast gene YOR198C
  The level of expressed mRNA in the presence of chemical substance/The level of expressed mRNA in the absence of chemical substance: 1.0
Yeast gene YOR259C
  The level of expressed mRNA in the presence of chemical substance/The level of expressed mRNA in the absence of chemical substance: 0.9
Yeast gene YOR261C
  The level of expressed mRNA in the presence of chemical substance/The level of expressed mRNA in the absence of chemical substance: 0.9
Yeast gene YOR288C
  The level of expressed mRNA in the presence of chemical substance/The level of expressed mRNA in the absence of chemical substance: 1.1
Yeast gene YOR355W
  The level of expressed mRNA in the presence of chemical substance/The level of expressed mRNA in the absence of chemical substance: 0.8
Yeast gene YOR383C
  The level of expressed mRNA in the presence of chemical substance/The level of expressed mRNA in the absence of chemical substance: 0.9
Yeast gene YPL089C
  The level of expressed mRNA in the presence of chemical substance/The level of expressed mRNA in the absence of chemical substance: 1.8
Yeast gene YPL109C
  The level of expressed mRNA in the presence of chemical substance/The level of expressed mRNA in the absence of chemical substance: 1.2
Yeast gene YPL149W
  The level of expressed mRNA in the presence of chemical substance/The level of expressed mRNA in the absence of chemical substance: 2.8
Yeast gene YPL154C
  The level of expressed mRNA in the presence of chemical substance/The level of expressed mRNA in the absence of chemical substance: 1.2
Yeast gene YPR103W
  The level of expressed mRNA in the presence of chemical substance/The level of expressed mRNA in the absence of chemical substance: 0.7
Yeast gene YPR108W
  The level of expressed mRNA in the presence of chemical substance/The level of expressed mRNA in the absence of chemical substance: 0.6
